Assay results reported in US8133847B2, “Pyrido[2,3-B]pyrazine derivatives useful as herbicidal compounds” (Syngenta Limited, priority 2006, dated 2012).

Assays:
Assay in all cases: Example B1 herbicidal action, post-emergence, 96-cell seed trays, climatic chamber
Type in all cases: in vivo
[1] = test system: Amaranthus retroflexus (AMARE); conditions: Application post-emergence, 1000 mg/l spray equivalent to 1000 g/ha, evaluated after 9 days
Outline: (§1)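 Plants at 8–9 days post-sowing (23/17 °C, 13 h light, 50–60% humidity) sprayed post-emergence with 1000 mg/l active ingredient in 10% DMSO, equivalent to 1000 g/ha. Grown on at 24/19 °C, watered twice daily; damage scored after 9 days (0 = none, 100 = total).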

Solanum nigrum (SOLNI) = conditions: Application post-emergence, 1000 mg/l spray equivalent to 1000 g/ha, evaluated after 9 days (100=total damage to plant, 0=no damage to plant)
Outline: as §1

Stellaria media (STEME) = conditions: Application post-emergence, 1000 mg/l spray equivalent to 1000 g/ha, evaluated after 9 days (100=total damage to plant, 0=no damage to plant)
Outline: as §1

[2] = test system: Nasturtium officinale (NAAOF); design: scale not given here; conditions: Application post-emergence, 1000 mg/l spray equivalent to 1000 g/ha, evaluated after 9 days (100=total damage to plant, 0=no damage to plant)
Outline: as §1

Row | Structure (SMILES) | damage to plant, Amaranthus retroflexus (AMARE) [1] | damage to plant, Solanum nigrum (SOLNI) (Solanum nigrum (SOLNI)) | damage to plant, Stellaria media (STEME) (Stellaria media (STEME)) | damage to plant, Nasturtium officinale (NAAOF) [2]
1 | Cc1ccc(Cl)c(-c2c(OC(=O)C(C)(C)C)c3nccnc3[nH]c2=O)c1F [Compound B37] | 0 | 0 | 5 | 0
2 | C=CCn1c(=O)c(-c2cccc(C(F)(F)F)c2Cl)c(OC(=O)C(C)C)c2nccnc21 [Compound C125] | 2 | 8 | 7 | 7
3 | CCn1c(=O)c(-c2ccccc2Cl)c(OC(C)=O)c2nccnc21 [Compound C185] | 4 | 4 | 10 | 8
4 | Cn1c(=O)c(-c2c(F)ccc(F)c2Cl)c(OC(=O)c2ccc([N+](=O)[O-])cc2)c2nccnc21 [Compound C51] | 7 | 0 | 7 | 7
5 | CCn1c(=O)c(-c2c(Cl)cccc2Cl)c(OC(=O)C(C)(C)C)c2nccnc21 [Compound C41] | 2 | 0 | 2 | 2
6 | CC#CCOC(=O)Oc1c(-c2c(F)ccc(F)c2Cl)c(=O)n(C)c2nccnc12 [Compound C73] | 4 | 0 | 4 | 6
7 | Cn1c(=O)c(-c2c(F)ccc(F)c2Cl)c(OC(=O)CC(C)(C)C)c2nccnc21 [Compound C53] | 7 | 3 | 5 | 7
8 | Cn1c(=O)c(-c2c(Cl)cc(C(F)(F)F)cc2Cl)c(OC(=O)C(C)(C)C)c2nccnc21 [Compound C120] | 5 | 7 | 7 | 6
9 | O=c1[nH]c2ncc(Cl)nc2c(O)c1-c1c(Cl)cccc1Cl [Compound A27] | 0 | 0 | 2 | 0
10 | O=c1[nH]c2nccnc2c(O)c1-c1ccccc1C(F)(F)F [Compound A8] | 5 | 0 | 2 | 7
11 | O=c1[nH]c2nccnc2c(O)c1-c1ccc(F)cc1Cl [Compound A10] | 9 | 0 | 2 | 2
12 | CC(C)(C)C(=O)Oc1c(-c2ccccc2OC(F)(F)F)c(=O)n(CC2CC2)c2nccnc12 [Compound C47] | 4 | 3 | 0 | 1
13 | CC(C)C(=O)Oc1c(-c2ccc(Cl)cc2Cl)c(=O)n(C)c2nccnc12 [Compound C63] | 5 | 5 | 8 | 9
14 | CC(=O)Oc1c(-c2ccc(Cl)cc2Cl)c(=O)[nH]c2nccnc12 [Compound B1] | 8 | 0 | 3 | 0
15 | CC(C)(C)C(=O)Oc1c(-c2c(Cl)cc(C(F)(F)F)cc2Cl)c(=O)[nH]c2nccnc12 [Compound B41] | 2 | 2 | 1 | 2
16 | CCC(=O)Oc1c(-c2c(Cl)cccc2Cl)c(=O)n(CC)c2nccnc12 [Compound C31] | 8 | 4 | 8 | 8
17 | O=c1[nH]c2nccnc2c(O)c1-c1c(Cl)cc(C(F)(F)F)cc1Cl [Compound A14] | 6 | 0 | 7 | 7
18 | O=c1[nH]c2ncc(Br)nc2c(O)c1-c1c(Cl)cccc1Cl [Compound A26] | 0 | 0 | 2 | 0

Row | Structure (SMILES) | damage to plant, Amaranthus retroflexus (AMARE) [1] | damage to plant, Solanum nigrum (SOLNI) (Solanum nigrum (SOLNI)) | damage to plant, Stellaria media (STEME) (Stellaria media (STEME)) | damage to plant, Nasturtium officinale (NAAOF) [2]
19 | Cn1c(=O)c(-c2cccc(C(F)(F)F)c2Cl)c(OC(=O)C(C)(C)C)c2nccnc21 [Compound C123] | 4 | 6 | 6 | 4
20 | CC(C)C(=O)Oc1c(-c2cc(C(F)(F)F)ccc2Cl)c(=O)[nH]c2nccnc12 [Compound B38] | 4 | 0 | 0 | 4
21 | C=CCCn1c(=O)c(-c2ccccc2OC(F)(F)F)c(OC(C)=O)c2nccnc21 [Compound C22] | 1 | 2 | 5 | 8
22 | O=c1[nH]c2nccnc2c(O)c1-c1ccc(F)cc1Br [Compound A18] | 6 | 6 | 4 | 9
23 | CC(CC(=O)Oc1c(-c2c(F)ccc(F)c2Cl)c(=O)n(C)c2nccnc12)CC(C)(C)C (stereo not drawn) [Compound C98] | 5 | 2 | 1 | 2
24 | CC(C)C(=O)Oc1c(-c2ccccc2C(F)(F)F)c(=O)n(C)c2nccnc12 [Compound C110] | 7 | 6 | 7 | 6
25 | CCn1c(=O)c(-c2c(Cl)ccc(C)c2F)c(OC(=O)C(C)(C)C)c2nccnc21 [Compound C117] | 0 | 5 | 1 | 0
26 | COc1c(Cl)cc(Cl)cc1-c1c(O)c2nccnc2[nH]c1=O [Compound A9] | 7 | 4 | 8 | 3
27 | O=c1[nH]c2nccnc2c(O)c1-c1ccc(Cl)cc1Cl [Compound A1] | 0 | 0 | 7 | 5
28 | O=c1[nH]c2nccnc2c(O)c1-c1c(Cl)ccc(Cl)c1Cl [Compound A21] | 7 | 5 | 3 | 6
29 | CCn1c(=O)c(-c2cc(C(F)(F)F)cc(C(F)(F)F)c2)c(OC(C)=O)c2nccnc21 [Compound C104] | 2 | 0 | 0 | 4
30 | Cc1ccc(Cl)c(-c2c(O)c3nccnc3[nH]c2=O)c1F [Compound A33] | 4 | 3 | 3 | 2
31 | CC(=O)Oc1c(-c2c(C)cc(C)cc2C)c(=O)[nH]c2nccnc12 [Compound B33] | 5 | 0 | 3 | 5
32 | O=c1[nH]c2nccnc2c(O)c1-c1cc(C(F)(F)F)ccc1Cl [Compound A34] | 6 | 2 | 4 | 4
33 | O=c1[nH]c2nccnc2c(O)c1-c1ccccc1Cl [Compound A2] | 6 | 0 | 2 | 2
34 | C=CCC(=O)Oc1c(-c2c(F)ccc(F)c2Cl)c(=O)n(CC=C)c2nccnc12 [Compound C113] | 7 | 6 | 8 | 6
35 | CC(C)n1c(=O)c(-c2ccccc2OC(F)(F)F)c(OC(=O)C(C)(C)C)c2nccnc21 [Compound C23] | 0 | 4 | 0 | 0
36 | CCC(=O)Oc1c(-c2ccc(F)cc2Cl)c(=O)n(C)c2nccnc12 [Compound C44] | 8 | 2 | 6 | 4
